Measurements published in ChEMBL document CHEMBL5154678, “Lysine Stapling Screening Provides Stable and Low Toxic Cationic Antimicrobial Peptides Combating Multidrug-Resistant Bacteria In Vitro and In Vivo” (J Med Chem, 2022).
In brackets after ≈: the same amount, converted by molar mass. Activity calls are given as the source filed them. The calls are words filed in the database; no cut-off is given here. Starred links: 1 amine or outer side, 2 acyl side, 3 side chain; linkers in the order of their positions; H or OH if unused. Positions of bridges follow the written chain, without caps; N, C: chain ends. Non-standard residues stand in square brackets, D forms with d. Residues, ends and D or L forms follow the SMILES beside them. X1 = O=C([C@H](CCCCNCC=[*:3])N[*:1])[*:2]

Key:
[1] = Toxicity in C57BL/6 mouse assessed as effect on alanine aminotransferase level at 5 to 20 mg/kg, ip administered once daily for 5 days and measured after 6 days; type: organism-based; details: in vivo, 120 h, dose 5-20 mg/kg, time 5 day
[2] = test system: Klebsiella pneumoniae; assay: Antibacterial activity against multidrug-resistant Klebsiella pneumoniae assessed as inhibition of bacterial growth incubated for 16 hrs by broth microdilution method; type: functional
[3] = test system: Pseudomonas aeruginosa; assay: Antibacterial activity against multidrug-resistant Pseudomonas aeruginosa BNCC 125486 assessed as inhibition of bacterial growth incubated for 16 hrs by broth microdilution method; type: functional
[4] = test system: Pseudomonas aeruginosa; assay: Antibacterial activity against Pseudomonas aeruginosa BNCC 125486 assessed as inhibition of bacterial growth incubated for 16 hrs by broth microdilution method; type: functional
[5] = Toxicity in C57BL/6 mouse assessed as abnormalities and pathological changes in liver at 20 mg/kg, ip administered once daily for 5 days by H and E staining based assay; type: organism-based; details: in vivo, 120 h, time 5 day
[6] = test system: Acinetobacter baumannii; assay: Antibacterial activity against multidrug-resistant Acinetobacter baumannii assessed as inhibition of bacterial growth incubated for 16 hrs by broth microdilution method; type: functional
[7] = test system: Staphylococcus aureus; assay: Antibacterial activity against methicillin-resistant Staphylococcus aureus BNCC 186335 infected in mouse C57BL/6 assessed as reduction in intracellular bacterial burden in liver at 2 mg/kg ,ip incubated for 24 hrs; type: functional, organism-based
[8] = Toxicity in C57BL/6 mouse assessed as effect on blood urea nitrogen level at 5 to 20 mg/kg, ip administered once daily for 5 days and measured after 6 days; type: organism-based; details: in vivo, 120 h, dose 5-20 mg/kg, time 5 day
[9] = test system: Cell membrane; assay: Induction of membrane damage in methicillin-resistant Staphylococcus aureus BNCC 186335 assessed as disruption of membrane integrity at 16 ug/ml incubated for 2 hrs by propidium iodide staining based assay; details: dose 16.0 µg/ml
[10] = test system: Enterococcus faecium; assay: Antibacterial activity against multidrug-resistant Enterococcus faecium assessed as inhibition of bacterial growth incubated for 16 hrs by broth microdilution method; type: functional
[11] = test system: Listeria monocytogenes; assay: Antibacterial activity against Listeria monocytogenes assessed as inhibition of bacterial growth incubated for 16 hrs by broth microdilution method; type: functional
[12] = test system: Erythrocyte; assay: Hemolytic activity against human RBC assessed as concentration required to cause 10% hemolysis; type: toxicity, cell-based
[13] = Stability in human plasma assessed as half life measured after 24 hrs by HPLC analysis; type: ADME, cell-free
[14] = test system: Escherichia coli; assay: Antibacterial activity against Escherichia coli BNCC 133264 assessed as inhibition of bacterial growth incubated for 16 hrs by broth microdilution method; type: functional
[15] = test system: Escherichia coli; assay: Antibacterial activity against cephalosporin-resistant Escherichia coli BNCC 133264 assessed as inhibition of bacterial growth incubated for 16 hrs by broth microdilution method; type: functional
[16] = test system: Cell membrane; assay: Induction of membrane disruption in multidrug-resistant Acinetobacter baumannii assessed as loss of cell integrity at 16 ug/ml measured after 2 hrs by SEM analysis; type: subcellular; details: dose 16.0 µg/ml
[17] = Toxicity in C57BL/6 mouse assessed as abnormalities and pathological changes in kidney at 20 mg/kg, ip administered once daily for 5 days by H and E staining based assay; type: organism-based; details: in vivo, 120 h, time 5 day
[18] = test system: Staphylococcus aureus; assay: Antibacterial activity against methicillin-resistant Staphylococcus aureus assessed as inhibition of bacterial growth incubated for 16 hrs by broth microdilution method; type: functional
[19] = test system: Staphylococcus aureus; assay: Drug resistance development in Staphylococcus aureus assessed as change in MIC at sub-MIC concentration measured after 60 passages; type: functional, organism-based
[20] = Toxicity in C57BL/6 mouse assessed as effect on body weight at 5 to 20 mg/kg, ip administered once daily for 5 days and measured every 24 hrs; type: organism-based; details: in vivo, 120 h, dose 5-20 mg/kg, time 5 day
[21] = test system: Acinetobacter baumannii; assay: Bactericidal activity against multidrug-resistant Acinetobacter baumannii assessed as log reduction in colony forming unit at 32 ug/ml measured after 10 mins by time kill assay; type: functional, organism-based; details: dose 32.0 µg/ml
[22] = test system: HEK-293T; assay: Cytotoxicity against human HEK293T cells assessed as cell survival rate at 64 Ug/ml incubated for 24 hrs by MTT assay relative to control; type: toxicity, cell-based; details: dose 64 µg/ml
[23] = test system: HEK-293T; assay: Cytotoxicity against human HEK293T cells assessed as cell survival rate at 256 ug/ml incubated for 24 hrs by MTT assay; type: toxicity, cell-based; details: dose 256 µg/ml
[24] = test system: Cell membrane; assay: Induction of membrane damage in methicillin-resistant Staphylococcus aureus BNCC 186335 assessed as concentration of stained cells incubated for 2 hrs by propidium iodide staining based flow cytometer assay; type: subcellular; details: DDE = dose-dependent effect
[25] = test system: Cell membrane; assay: Induction of membrane disruption in methicillin-resistant Staphylococcus aureus BNCC 186335 assessed as loss of cell integrity at 16 ug/ml measured after 2 hrs by SEM analysis; type: subcellular; details: dose 16.0 µg/ml
[26] = test system: Staphylococcus aureus; assay: Antibacterial activity against methicillin-resistant Staphylococcus aureus BNCC 186335 infected in mouse C57BL/6 assessed as reduction in intracellular bacterial burden in spleen at 2 mg/kg ,ip incubated for 24 hrs; type: functional, organism-based
[27] = test system: Staphylococcus aureus; assay: Antibacterial activity against Staphylococcus aureus BNCC 186335 assessed as inhibition of bacterial growth incubated for 16 hrs by broth microdilution method; type: functional
[28] = test system: Cell membrane; assay: Induction of membrane damage in multidrug-resistant Acinetobacter baumannii assessed as concentration of stained cells incubated for 2 hrs by propidium iodide staining based flow cytometer assay; type: subcellular; details: dose 16.0 µg/ml
[29] = test system: Staphylococcus aureus; assay: Antibacterial activity against methicillin-resistant Staphylococcus aureus BNCC 186335 assessed as inhibition of bacterial growth incubated for 4 hrs in presence of 25% plasma by broth microdilution method; type: functional
[30] = Toxicity in C57BL/6 mouse assessed as effect on aspartate transaminase level at 5 to 20 mg/kg, ip administered once daily for 5 days and measured after 6 days; type: organism-based; details: in vivo, 120 h, dose 5-20 mg/kg, time 5 day
[31] = test system: Escherichia coli; assay: Antibacterial activity against multidrug-resistant Escherichia coli BNCC 133264 assessed as inhibition of bacterial growth incubated for 16 hrs by broth microdilution method; type: functional
[32] = test system: Staphylococcus aureus; assay: Antibacterial activity against multidrug-resistant Staphylococcus aureus BNCC 186335 assessed as inhibition of bacterial growth incubated for 16 hrs by broth microdilution method; type: functional

## CC(C)[C@H](N)C(=O)N[C@@H](CCCCN)C(=O)N[C@@H](CCCNC(=N)N)C(=O)N[C@@H](Cc1ccccc1)C(=O)N[C@@H](CCCCN)C(=O)N[C@H]1CCCCNC/C=C/CNCCCC[C@@H](C(=O)N[C@@H](Cc2ccccc2)C(=O)N[C@@H](CCCCN)C(=O)N[C@@H](CCCCN)C(=O)N[C@@H](Cc2ccccc2)C(=O)N[C@H](C(N)=O)C(C)C)NC(=O)[C@H](CCCNC(=N)N)NC(=O)[C@H](Cc2ccccc2)NC(=O)[C@H](Cc2ccccc2)NC1=O (H-VKRFK[X1]FFR[X1]FKKFV-NH2; staple (E) 6-10)
[1]
  Activity: Non-Toxic
[2]
  MIC: 32 µg/mL (≈ 15.4 µM)
[3]
  MIC: 8 µg/mL (≈ 3.84 µM)
[4]
  MIC: 16 µg/mL (≈ 7.68 µM)
[5]
  Activity: Non-Toxic
[6]
  MIC: 4 µg/mL (≈ 1.92 µM)
[7]
  Activity: Active
[8]
  Activity: Non-Toxic
[9]
  Activity: Active
[10]
  MIC: 4 µg/mL (≈ 1.92 µM)
[11]
  MIC: 4 µg/mL (≈ 1.92 µM)
[12]
  MHC: > 128 µg/mL
[13]
  half-life: 13 h
[14]
  MIC: 2 µg/mL (≈ 0.959 µM)
[15]
  MIC: 8 µg/mL (≈ 3.84 µM)
[16]
  Activity: Active
[17]
  Activity: Non-Toxic
[18]
  MIC: 2 µg/mL (≈ 0.959 µM)
[19]
  Activity: Active
[20]
  Activity: Non-Toxic
[21]
  Activity: Active
[22]
  Activity: Toxic
[23]
  Activity: Toxic
[24]
  Activity: Dde
[25]
  Activity: Active
[26]
  Activity: Active
[27]
  MIC: 2 µg/mL (≈ 0.959 µM)
[28]
  Activity: 80%
[29]
  Activity: Active
[30]
  Activity: Non-Toxic
[31]
  MIC: 4 µg/mL (≈ 1.92 µM)
[32]
  MIC: 8 µg/mL (≈ 3.84 µM)
